# In US11447504B2, “Macrocyclic chlorine substituted indole derivatives” (Bayer Aktiengesellschaft, priority 2017, dated 2022):
# Counter-ions that a name gives are not always drawn. Like-named read-outs stand apart in the source and are kept apart here.
# Legend:
# SUDHL10 [1] = assay: Induction of cytotoxicity (Assay 6), SUDHL10
# SUDHL5 [2] = assay: Antiproliferation assay 7, SUDHL5; assay type: cell-based; settings: SUDHL5 cells, CellTiter-Glo, read-out: Antiproli SUDHL5 IC50 (median)
# How it was run: (§1)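 Luminescent ATP-based viability (CellTiter-Glo) measured after 72 hours of compound treatment at 37° C, alongside a time-zero plate read on the day of plating.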
# SUDHL10 [3] = assay: Induction of caspase-3/7 activity (Assay 4), SUDHL10; assay type: cell-based; settings: SUDHL10 cells
# How it was run: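 SUDHL10 DLBCL cells treated with compounds for 3 hours at 37 °C in a humidified incubator. Caspase-3/7 activity read with Caspase-Glo 3/7 luminescent reagent. Medium-only background subtracted from all values.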
# SUDHL5 [4] = assay: Induction of cytotoxicity (Assay 6), SUDHL5
# AMO-1 = assay: Antiproliferation assay 7, AMO-1; assay type: cell-based; settings: AMO-1 cells, CellTiter-Glo, read-out: Antiproli AMO-1 IC50 median
# How it was run: as §1
# BCL-2 = BCL-2 (Homo sapiens (Human), UniProt P10415); assay: Protein-protein interaction assay BCL-2/Bad BH3 peptide (BCL-2 Assay, TR-FRET); assay type: binding; settings: read-out: BCL-2 Assay IC50 (median)
# Protocol: The dose-dependent inhibition by the compounds described in this invention of the interaction between BCL-2 and the BH3 domain of Bad (both human) was determined using a steady state binding competition assay with time-resolved fluorescence energy transfer (TR-FRET) readout.
# For that, 100-fold concentrated DMSO solutions were prepared by serial dilutions (1:3.4) of a 2 mM stock solution in a clear, 384-well microtiter plate (Greiner Bio-One, Frickenhausen, Germany). From there, 50 nl were transferred in a dark test plate (Greiner Bio-One, Frickenhausen, Germany). […] This was followed by a 10-minute incubation step at 22° C. for pre-equilibration of the putative complex between His-BCL-2 and the compounds.
# The mixture was incubated in the dark for one hour at 22° C. and then overnight at 4° C.
# The resulting data (ratio) were normalized, taking 0% inhibition as the mean value of control measurements (usually 32 data points) where all reagents were included. In this case 50 nl DMSO were used instead of compounds. […] IC50 values were determined by regression analysis based on a 4 parameter equation (minimum, maximum, IC50, Hill; Y=Max+(Min−Max)/(1+(X/IC50)^Hill) using the Screener Software (Genedata).
# [5] = read-out: Cytotox SUDHL10 IC50 (median), SUDHL10 cells, 5 hours, CellTiter-Glo
# [6] = 3 hours, Caspase-Glo 3/7, read-out: Caspase SUDHL10 EC50 (median)
# [7] = read-out: Cytotox SUDHL5 IC50 (median), SUDHL5 cells, 5 hours, CellTiter-Glo
# Sequence of BCL-2 (P10415 other isoform, or with tags, fused parts or gaps): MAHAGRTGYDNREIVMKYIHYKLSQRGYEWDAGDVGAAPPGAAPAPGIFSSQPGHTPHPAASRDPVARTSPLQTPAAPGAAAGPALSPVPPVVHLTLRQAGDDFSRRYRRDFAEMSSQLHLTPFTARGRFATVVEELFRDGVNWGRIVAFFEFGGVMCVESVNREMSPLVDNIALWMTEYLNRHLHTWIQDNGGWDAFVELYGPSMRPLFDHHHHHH
Compound,IC50 (SUDHL10 [1]; [5]) [nM],IC50 (SUDHL5 [2]; 72 hours) [nM],EC50 (SUDHL10 [3]; [6]) [nM],IC50 (SUDHL5 [4]; [7]) [nM],IC50 (AMO-1; 72 hours) [nM],IC50 (BCL-2) [nM],"IC50 (SUDHL5 [2]; Homo sapiens, SU-DHL-5, 72 h) [nM]","IC50 (SUDHL10 [1]; Homo sapiens, SU-DHL10, 5 h, read-out: Cytotox SUDHL10 IC50 (median), SUDHL10 cells, 5 hours, CellTiter-Glo) [nM]","EC50 (SUDHL10 [3]; Homo sapiens, SU-DHL10, 3 h, Caspase-Glo 3/7, read-out: Caspase SUDHL10 EC50 (median)) [nM]","IC50 (SUDHL5 [4]; Homo sapiens, SU-DHL-5, 5 h, read-out: Cytotox SUDHL5 IC50 (median), SUDHL5 cells, 5 hours, CellTiter-Glo) [nM]","IC50 (AMO-1; Homo sapiens, AMO1, 72 h) [nM]"
"Cc1c2c(nn1C)N(C)CCCCCn1c(C(=O)O)c(CCCOc3cccc4cc(F)ccc34)c3ccc(Cl)c-2c31 (racemic) [Example 74, (rac)-4-chloro-7-{3-[(6-fluoronaphthalen-1-yl)oxy]propyl}-2,3,15-trimethyl-10,11,12,13,14,15-hexahydro-2H-pyrazolo[4′,3′:4,5][1,6]diazacycloundecino[3,2,1-hi]indole-8-carboxylic acid]",1300,810,1000,1000,1100,19000,–,–,–,–,–
"CCc1c2c(nn1C)N(C)CCCCCn1c(C(=O)O)c(CCCOc3cccc4cc(F)ccc34)c3ccc(Cl)c-2c31 (single isomer, unassigned; enantiomer 1) [Example 78, 4-chloro-3-ethyl-7-{3-[(6-fluoronaphthalen-1-yl)oxy]propyl}-2,15-dimethyl-10,11,12,13,14,15-hexahydro-2H-pyrazolo[4′,3′:4,5][1,6]diazacycloundecino[3,2,1-hi]indole-8-carboxylic acid-N-ethylethanamine Salt—Enantiomer 1]",700,–,320,310,770,> 20000,2300,–,–,–,–
"Cc1c2c(nn1C)N(C)CCCCCn1c(C(=O)O)c(CCCOc3cccc4ccccc34)c3ccc(Cl)c-2c31 (racemic) [Example 71, (rac)-4-chloro-2,3,15-trimethyl-7-{3-[(naphthalen-1-yl)oxy]propyl}-10,11,12,13,14,15-hexahydro-2H-pyrazolo[4′,3′:4,5][1,6]diazacycloundecino[3,2,1-hi]indole-8-carboxylic acid]",–,–,–,–,–,> 20000,2000,2700,1800,690,5000
"Cc1c2c(nn1C)N(C)CCCCCn1c(C(=O)O)c(CCCOc3cccc4cc(F)ccc34)c3ccc(Cl)c-2c31 [Example 75, (+)-4-chloro-7-{3-[(6-fluoronaphthalen-1-yl)oxy]propyl}-2,3,15-trimethyl-10,11,12,13,14,15-hexahydro-2H-pyrazolo[4′,3′:4,5][1,6]diazacycloundecino[3,2,1-hi]indole-8-carboxylic acid-N-ethylethanamine salt]",810,520,740,380,1100,19000,–,–,–,–,–
